This data set in a line: in vitro. The note with it: human, hela cells, % viability.

On to `O=C1C2C3C=CC(C3)C2C(=O)N1CCN1CCN(S(=O)(=O)/C=C/c2ccccc2)CC1` (centres unmarked) [CBK263663], for which the viability at 28.5 h, 10 µM is 88.4%.
On to `Nc1ncnc(NCCCN2CCOCC2)c1[N+](=O)[O-]` [CBK267267], for which the viability at 28.5 h, 10 µM was found to be 91.8%.
For `O=[N+]([O-])c1ccccc1S(=O)(=O)Nc1ccc(S(=O)(=O)Nc2ncccn2)cc1` [CBK264768], the viability at 28.5 h, 10 µM came out at 109%.
`NS(=O)(=O)c1cnc(Cl)c(Br)c1` [CBK034079]: the viability at 28.5 h, 10 µM came to 92.5%.
Under `CCc1nc2c(Oc3nc4ccccc4s3)cccn2c1N(C)C(=O)C(C)C` [CBK147765] stands 88.5%.
As for `CCOC(=O)c1sc(Nc2nc(C)cc(OC)n2)nc1C` [CBK264822], the viability at 28.5 h, 10 µM was 108%.
Consider `Cc1csc2c(C3CCN(C(=O)c4cscn4)CC3)nc(C)n12` [CBK285246], for which the viability at 28.5 h, 10 µM is 80.2%.
Under `Cn1nc2c(cc1=O)CN(C(=O)c1ccoc1)CC2` [CBK304330] stands 119%; under `O=C(Nc1ccc(F)cc1)c1c(NS(=O)(=O)c2ccc(Oc3ccccc3)cc2)sc2c1CCCC2` [CBK028653], 96.7%; under `COc1ccc(CCNc2c3c(c(C#N)c4nc5ccccc5n24)CCC3)cc1OC` [CBK263147], 97.9%.
Under `Cc1c(C#N)sc(-c2nc[nH]n2)c1C` [CBK005952] stands 77.6%.
In the case of `Cc1nn(CC(=O)NC(C)c2cccnc2)c(C)c1C` (centres unmarked) [CBK281489] it was 102%; in that of `COc1ccc([N+](=O)[O-])cc1N1CCN(C(=O)OC(C)(C)C)CC1` [CBK003504], 92.3%.
Consider `Cn1ccnc1C1(O)CCN(C(=O)NC2CCCCC2)CC1` [CBK282275], for which the viability at 28.5 h, 10 µM was found to be 91.8%.
Under `OCCOc1cccc2cccnc12` [CBK001784] stands 104%; under `COc1ccc(CC(=O)N2CCC[C@@H](N)[C@@H]2c2ccccc2F)cc1` [CBK283456], 102%.
Take `CCCOc1ccc(C(N)CC(=O)O)cc1` (centres unmarked) [CBK261360]: the viability at 28.5 h, 10 µM is 93.5%.
Under `Cc1ccc(-c2nnc3c4ccccc4c(C)nn23)cc1S(=O)(=O)NC(C)c1ccccc1` (centres unmarked) [CBK266715] stands 94.5%; under `CN(C)c1cccc(NC(=O)Nc2ncc(Br)c3cccnc23)c1` [CBK107633], 94%.
In the case of `OCc1ccc(CN2Cc3nc[nH]c3C[C@H]2c2nc(Cc3ccccc3)no2)o1` [CBK288955] it was 93.8%; in that of `CN(C)c1ncc(-c2ccc(F)cc2)c(C2CCCN2C(=O)c2nccc3ccccc23)n1` (centres unmarked) [CBK286086], 84.3%.
In the case of `O=C(O)c1ccc(C(=O)c2c3c(=O)n(-c4ccccc4C(=O)O)c(=O)c3cc3c(=O)n(-c4ccccc4C(=O)O)c(=O)c23)cc1` [CBK261183] it was 91.7%; in that of `COc1ccc2c(c1)OC1(CCN(CC(O)c3ccc(-c4ccccc4)cc3)CC1)CC2O` (centres unmarked) [CBK286346], 91.2%; in that of `COc1cc(CNc2cccc(-c3ccsc3)n2)cc(OC)c1` [CBK037592], 97.8%.
As for `CCN(CCc1nc2cc(OC)ccc2[nH]1)C(=O)c1cc(C#N)cn1C` [CBK306658], the viability at 28.5 h, 10 µM amounted to 90.5%.
Under `CN(c1ncccc1C#N)C1CCN(C(=O)OCc2ccccc2)CC1` [CBK023869C] stands 84.1%.
Under `Nc1nc(CCC(=O)N2CCCC(c3cc(O)ncn3)C2)cs1` (centres unmarked) [CBK306976] stands 89.5%; under `COC(=O)C1ON2CCCCC2C1(O)C(F)(F)F` (centres unmarked) [CBK007430], 90.6%.
Under `CN1CCCN(c2nc(-c3cccs3)cn3ccnc23)CC1` [CBK066652] stands 89.5%.
Regarding `COc1ccccc1NC(=O)NC(=O)C1CCN(C(C)=O)CC1` [CBK034853], the viability at 28.5 h, 10 µM was determined as 119%.
In the case of `COc1ccc(-n2[nH]c(C)c(Cc3c(Cl)cccc3Cl)c2=O)cc1` [CBK084521] it was 94.5%; in that of `Cc1ccsc1CN(Cc1nccn1C)CC(C)O` (centres unmarked) [CBK282976], 92.3%; in that of `O=C1c2ccccc2C2(c3ccccc3)NCCN12` (centres unmarked) [CBK067098], 101%.
In the case of `Cc1c(-c2csc(CC#N)n2)sc2ccccc12` [CBK020828] it was 65.6%; in that of `CC1(C)CC(=NNC(=O)CCc2cc(C(C)(C)C)c(O)c(C(C)(C)C)c2)CC(C)(C)N1` [CBK261952], 108%.
In the case of `O=C(O)CSc1nnc(C2COc3ccccc3O2)n1-c1ccccc1` (centres unmarked) [CBK263832] it was 104%; in that of `CC(C)c1noc(N2CCC(Oc3ccc(-c4ccc(S(C)(=O)=O)cc4)cn3)CC2)n1` [CBK158821], 84.6%.
On to `CCCCOC(=O)c1ccc(N2C(=O)CC(N3CCN(c4ccc(F)cc4)CC3)C2=O)cc1` (centres unmarked) [CBK265527], for which the viability at 28.5 h, 10 µM amounted to 94.6%.
In the case of `CCc1noc(C)c1C(=O)NCC1CCCCN1CC` (centres unmarked) [CBK282201] it was 97.3%; in that of `CCOC(=O)c1sc(NC(=O)c2ccccc2Br)nc1C` [CBK067745], 90.2%; in that of `Cc1ccc(N(Cc2cc3ccccc3nc2O)C(=O)c2cccnc2)cc1` [CBK265442], 85.5%.
Under `CSCCC(=O)NCCc1c[nH]c2ccc(Cl)cc12` [CBK159775] stands 95.6%; under `Cn1nc(C(C)(C)C)c2cc(C(=O)N3CCCc4occc4C3)cnc21` [CBK304713], 97.7%.
Under `CCCN1CC(NS(=O)(=O)c2ccc3oc(=O)n(C)c3c2)CC1=O` (centres unmarked) [CBK307664] stands 92.6%; under `COc1cc(/C=N/n2c(S)nnc2C(F)(F)F)cc(Br)c1O` [CBK265321], 74.2%; under `COc1ccc(C(=O)Nc2nc(-c3ccc(OC)cc3)cs2)cc1` [CBK287325], 99.2%.
With `O=C(CSc1nc2ccccc2c(=O)[nH]1)NCCO` [CBK266469], the viability at 28.5 h, 10 µM worked out at 96.2%.
In the case of `COc1ccccc1CN(CCCN)C(=O)NC(C)c1ccccc1` (centres unmarked) [CBK034667C] it was 87.3%.
In the case of `COc1cc(C2C(C(=O)c3cccs3)=C(O)C(=O)N2Cc2cccnc2)ccc1O` (centres unmarked) [CBK264605] it was 110%; in that of `O=C(NS(=O)(=O)c1cccc(-c2nnco2)c1)C1C2C3CCC(C3)C12` (centres unmarked) [CBK306488], 89%; in that of `O=C(Nc1cccc(Cl)c1Cl)c1cnccn1` [CBK288243], 105%.
Under `OCc1ccccc1-c1nccnc1NCc1ccco1` [CBK037098] stands 94.5%; under `CCCC1=NN(c2ccc([N+](=O)[O-])cc2)C(=O)/C1=C/NC1CC(C)(C)NC(C)(C)C1` [CBK262896], 84.9%.
With `COc1ccc(C2CCN(CC(=O)NCc3ccco3)CC2)cc1` [CBK283562], the viability at 28.5 h, 10 µM is 103%.
Under `COc1ccc(C(=O)Nc2nnc(-c3ccccc3OC)o2)cc1OC` [CBK287589] stands 86.3%.
Regarding `O=C(NCCCN1CCCCC1)C1CC(=O)N(Cc2ccco2)C1` (centres unmarked) [CBK305145], the viability at 28.5 h, 10 µM was found to be 93.1%.
Under `COc1ccc(NC(=S)NC(=N)N2CCN(Cc3ccccc3)CC2)cc1` [CBK267858] stands 95.1%; under `COCCCNC(=S)N/N=C/c1ccco1` [CBK006272], 104%; under `CCn1nc(C)c(C2NC(=O)c3ccccc3N2)c1C` (centres unmarked) [CBK288214], 88.6%.
Under `O=c1ccc(-c2ccccc2)nn1CC1CCNCC1` [CBK284203] stands 98.6%; under `C/C(=N\N)c1ccc2[nH]c3c(c2c1)CCC/C3=N\N` [CBK261812], 81.2%.
Under `N#Cc1c(NC(=O)CSc2nnc(N)s2)sc2c1CCCC2` [CBK266649] stands 99.8%.
Consider `O=C(CO)N1CC2(CCN(CCC(c3ccccc3)c3ccccc3)CC2)c2ccccc21` [CBK131513], for which the viability at 28.5 h, 10 µM turned out to be 106%.
In the case of `COc1cccc(CN2CCCC(c3nc(C)n4ccccc34)C2)c1` (centres unmarked) [CBK282989] it was 101%; in that of `O=C(Nc1nccc(-c2cc(OCC(F)(F)F)ccc2OCC(F)(F)F)n1)c1cccs1` [CBK005949], 95.5%; in that of `CCNC(=O)Nc1ccc(-c2ccc(S(C)(=O)=O)cc2)c2ccccc12` [CBK083728], 88.1%.
`N#Cc1ccc(Cn2cc(C(=O)C(N)=O)c3ccccc32)cc1` [CBK270062]: the viability at 28.5 h, 10 µM amounted to 84.2%.
Under `OC(CN1CCC2(CC1)CC(O)c1cc(F)ccc1O2)c1ccc(-c2ccccc2)cc1` (centres unmarked) [CBK286331] stands 102%.
In the case of `CCCOc1c(Cl)cc(/C=C2\N=C(c3ccc(OC)cc3)OC2=O)cc1OCC` [CBK098846] it was 93.3%; in that of `CNC(=O)C1(Cc2ccc(-c3ccccc3)cc2)CCN(C(=O)C2CCCCC2)CC1` [CBK285762], 113%; in that of `O=C(O)C1CCCCC1C(=O)NCc1cccnc1` (centres unmarked) [CBK261695], 91.7%.
Under `O=C(Nc1cc(Oc2ccc(Cl)cc2)cc([N+](=O)[O-])c1)c1cnn2c(C(F)F)cc(C3CC3)nc12` [CBK268925] stands 105%.
For the compound `COCCNC(=O)c1cc(-c2ccc(Cl)cc2)cnc1NS(C)(=O)=O` [CBK106421], the viability at 28.5 h, 10 µM is 94.4%.
Under `CCCc1ccc(S(=O)(=O)N2CCN(Cc3ccc4c(c3)OCO4)CC2)cc1` [CBK074735] stands 107%; under `S=C1NCCN1c1nnc(-c2cccs2)[nH]1` [CBK007096], 97.3%; under `CCCN1CCC(CNC(=O)c2cc(C3CC3)nn2C)CC1` [CBK282536], 101%.
In the case of `CC(NC(=O)c1ncoc1-c1ccc2ccccc2c1)c1cccnc1` (centres unmarked) [CBK282441] it was 94.2%.
Under `c1c(C2CC2)[nH]c2nc(N3CCCC3)nc(N3CCCC3)c12` [CBK016707G] stands 113%; under `O=S(=O)(Nc1nnc(C(F)(F)F)s1)c1ccc(F)cc1` [CBK026663], 91.4%; under `O=C(CCCSC1=NC(C(F)(F)F)CC(c2ccco2)N1)Nc1ccc(Cl)c(Cl)c1` (centres unmarked) [CBK268858], 88%.

These data come from publication PMC12040169 (PLOS Biology, 2025).
